From US7906675B2, “Compounds for the treatment of metabolic disorders” (Wellstat Therapeutics Corporation, priority 2003, dated 2011)

System: C57BL/Ksola (db/db) mice
Assay: Antidiabetic effects in db/db diabetic mouse model
Format: in vivo
Settings: serum, 60 mg/kg daily oral for 17 days
Description: C57BL/Ksola (db/db) mice have a defect in leptin signaling, leading to hyperphagia, obesity, hypertriglyceridemia, and diabetes. Moreover, unlike ob/ob mice on a C57BL/6J background, db/db mice on a C57BLKS background undergo failure of their insulin-producing pancreatic islet cells, resulting in progression from hyperinsulinemia (associated with peripheral insulin resistance) to hypoinsulinemic diabetes.
Male obese (db/db homozygote) C57BL/Ksola mice approximately 8 weeks of age, were obtained from Jackson Labs (Bar Harbor, Me.) and sorted into groups of 7 animals each animals such that the body weights (40-45 g) and serum glucose levels (≧300 mg/dl in fed state) were similar between groups. A minimum of 7 days was allowed for adaptation after arrival. All animals were maintained under controlled temperature (23° C.), relative humidity (50±5%) and light (7:00-19:00), and allowed free access to standard chow (Formulab Diet 5008, Quality Lab Products, Elkridge, Md.) and water.
Groups of mice received daily oral doses of vehicle (1% hydroxypropylmethylcellulose) or Compound CS (60 mg/kg) for 17 days. At the end of the treatment period, blood samples were collected and serum glucose, triglycerides, and free fatty acids were measured.

In the case of `Cc1cccc(C)c1CSc1ccc(C(=O)CCC(=O)O)cc1` [Compound CS, 4-(4-[(2,6-Dimethylbenzyl)-thio]-phenyl)-4-oxobutyric acid], the “Free Fatty Acids” value is reported as 2034 ± 195 µM, the Triglycerides is reported as 150 ± 10 mg/dL and the Glucose (±SEM) is reported as 593 ± 77 mg/dL.
